Test system: cholesterol in blood
Test: Reduction of blood cholesterol in rats fed a cholesterol diet
Format: in vivo
Details: male rats, 3 days, relative value: control group = 0, normal group = 100, * 5%, ** 1% significance over control; for % Inhibition (blood cholesterol), Dose in Diet 0.03%: 0.03% test compound in diet with 1% cholesterol and 0.25% sodium cholate; for % Inhibition (blood cholesterol), Dose in Diet 0.1%: 0.1% test compound in diet with 1% cholesterol and 0.25% sodium cholate
Description: A completely synthetic diet containing 1% of cholesterol, 0.25% of sodium cholate and 0.03% and 0.1% of the test compound is given to a group of 6 male rats having a body weight of about 50 g consecutively for 3 days, and the rats are fasted overnight. Then, the rats are decapitated, and their blood is collected to determine the cholesterol concentration in the collected blood. The concentration of cholesterol in blood is measured with Technicon Autoanalyzer (Technicon Laboratory: Method File N-24a).
Each value shown in the Table is a relative value determined based on the supposition that the value of the control group (the cholesterol-administered group) is 0 and the value of the normal group (the non-cholestero-administered group) is 100.

CC(C)C1=CC2=CC[C@@H]3[C@](C)(CCC[C@@]3(C)C(=O)NC3CCCC3)[C@H]2CC1 [N-Cyclopentylabietamide]
% Inhibition (blood cholesterol), Dose in Diet 0.03%: 11%
% Inhibition (blood cholesterol), Dose in Diet 0.1%: 32%

N-Benzyldihydroabietamide
% Inhibition (blood cholesterol), Dose in Diet 0.03%: 25%
% Inhibition (blood cholesterol), Dose in Diet 0.1%: 64%

N-Methyl-N-phenyldihydroabietamide
% Inhibition (blood cholesterol), Dose in Diet 0.03%: -8%
% Inhibition (blood cholesterol), Dose in Diet 0.1%: 27%

N-α-Phenylethyldihydroabietamide
% Inhibition (blood cholesterol), Dose in Diet 0.03%: 71%
% Inhibition (blood cholesterol), Dose in Diet 0.1%: 99%

Reference: patent US4210671A, “Abietamide derivatives, their production and use” (priority 1974, dated 1980)
